Measurements from patent publication US20240424036A1, “COMPOSITIONS AND METHODS FOR PREVENTING OR TREATING INCONTINENCE, OVERACTIVE BLADDER, OR MENSTRUAL CRAMPING” (priority 2018, published 2024).
“Also recorded” adds a separate entry of the source.

What was measured:
[1] = tested on: primary myofibroblast cells; test: Myofibroblast populated collagen gel contraction assay; format: cell-based
Procedure: Bacterial supernatants from E. coli, L. crispatus, and L. gasseri strain KE-1 (ATCC Designation No. PTA-125162) were added to a myofibroblast populated collagen matrix, both from pure culture and mixtures with DMEM with 2% FBS. In addition, GABA, ATP and LPS were included as controls. The collagen contraction assay using primary myofibroblast cells seeded on top of a collagen matrix was tested against the bacterial products. […] As depicted in FIG. 12C, pure ATP caused contraction of myofibroblasts in the first hour (30.37%) and continued for 24 hours (68.56%). […] Based on previous literature, it is believed that the contraction maybe caused by E. coli was due to LPS.
Bladder epithelial cells (5637-ATCC HTB-9) were maintained in RPMI 1640 (Roswell-Park Memorial Institute media—Thermo Fisher Scientific, MA) supplemented with 10% fetal bovine serum (FBS) (Thermo Fisher Scientific, Ma.) and 2 mM L-glutamine (Thermo Fisher Scientific, MA.) at 37° C. and 5% CO2. The media was changed every 48 hours or more regularly if the cells were confluent (90%-100%), after washing by 1×PBS and trypsinization by 0.25% Trypsin-EDTA (1×) (Gibco), with the ratio of 1 to 10. Primary myofibroblast cells were extracted from the palmar fascia during surgery from normal tissue. Primary cultures were maintained in DMEM with 10% fetal bovine serum (FBS; Life Technologies, Carlsbad, CA, USA), 1% L-glutamine (Life Technologies) and 1% antibiotic-antimycotic solution (Life Technologies) at 37° C. in 5% CO2. All primary cell lines were used up to a maximum of four passages, after which they were discarded.

L. crispatus = test: Growth of L. crispatus in AU supplemented with ATP; format: cell-based, Lactobacillus crispatus; settings: AU supplemented with different concentrations of ATP, FIG. 8E
Procedure: As depicted in FIG. 8D, the amount of ATP remaining when L. crispatus was grown in AU supplemented with 0.1 mM ATP for 24 hours was 22.89±0.98 uM, which was less than half the control (49.2±6.3 uM) (P≤0.0005). To further investigate ATP reduction, L. crispatus was cultured in AU supplemented with different concentrations of ATP (FIG. 8E), as well as in AU supplemented with 50% E. coli supernatant (FIG. 8G), and 25% G. vaginalis supernatant (FIGS. 8H and 8J), as potential natural sources of ATP. The growth of L. crispatus was increased by increasing ATP concentration (FIG. 8E), including that emanating from the E. coli and G. vaginalis supernatants (FIGS. 8H and 8J). […] In FIGS. 8A-8L, statistical significance was determined using Tukey's test, p≤0.05, and is designated with three asterisks (p less than 0.05*, 0.01**, 0.001***).
For investigation the subtherapeutic concentration of ciprofloxacin, the L. crispatus was grown in deMan, Rogosa, Sharpe media (MRS, Difco, MD). Growth curves for these bacteria were generated using a plate reader (Eon Biotek, VT) at OD600 and 37° C. to determine exponential phase.

E. coli [2] = test: Growth of E. coli supplemented with ATP; format: cell-based, Escherichia coli; settings: FIG. 8F
5637 cells = test: Fluorescent microscopy of calcium influx of 5637 cells (FLUO-4); format: cell-based, human
Procedure: Supernatants were collected from cultures grown overnight (24 hours) at 37° C. after reaching stationary phase. Cultures were pelleted by centrifugation at 5000 rpm (Eppendorf Centrifuge 5804 R) for 15 minutes. The supernatant was pH adjusted to 7.0 with 0.1 Molar HCL or NaOH, filter sterilized with 0.22 um sterile syringe filter, and aliquoted and stored at −20 C° until use. In the case of E. coli and E. faecalis, overnight cultures were diluted 1:100 with fresh artificial urine, returned to incubation at 37° C. and sampled at T=1, 2, 3, 4, 5 and 24 hours for testing. […]
The influx of calcium was measured using the FLUO-4 DIRECT™ Calcium Assay kit (Invitrogen™, CA). […] Cells were counted by using the INVITROGEN COUNTESS AUTOMATED CELL COUNTER (Thermo Fisher Scientific, MA.) per the manufacturers' instructions. […] The effect of treatments was assessed using a NIKON EPIFLUORESCENCE TS2R scope at 10× magnification at 494 nm for excitation and 516 nm for emission for 60 seconds. The image intensity was calculated using ImageJ and is indicative of Ca^2+ influx into the urothelial cell's cytoplasmic space from either the extracellular environment or intracellular Ca^2+ stores (referred to as Ca^2+ influx).

E. coli [3] = test: ATP release by E. coli at subtherapeutic ciprofloxacin concentrations; format: cell-based, Escherichia coli; settings: concentrations below the MIC of 0.25, 0.125, 0.0625 ug/mL, FIG. 9B
Procedure: Further testing was completed on E. coli and its release of ATP. Testing was conducted to determine the minimum inhibitory concentration (MIC) and subtherapeutic concentrations of exposure to the antibiotic ciprofloxacin (Cip).
The release of ATP from bacterial supernatants was measured using an ATP colorimetric/fluorometric assay kit (Biovision Inc, CA). Samples and reagents were prepared according to the protocol provided. The OD numbers were taken by the BIOTEK EON microplate reader. A luminescent assay kit BACTITER-GLO™ Microbial Cell Viability Assay, G8230) was used to quantify the amount of extracellular ATP released by the bacteria into the supernatant and released by the cells into the cell media. The SYNERGY™ H4 Hybrid Multi-Mode Microplate Reader was used to quantify the amount of extracellular ATP.

In the case of Nc1ncnc2c1ncn2[C@@H]1O[C@H](COP(=O)(O)OP(=O)(O)OP(=O)(O)O)[C@@H](O)[C@H]1O [ATP, adenosine triphosphate], the contraction of myofibroblasts ([1]; after 24 hours, sample alone, FIGS. 12A-12C) was 68.56%, the contraction of myofibroblasts ([1]; after five hours of exposure, FIG. 12E) was 57.5% and the contraction of myofibroblasts ([1]; in the first hour, FIG. 12C) was 30.37%. The “growth of L. crispatus” value (L. crispatus) was “increased” and the “growth of E. coli” value (E. coli [2]) was “somewhat inhibitory effect”.
For NCCCC(=O)O [GABA, γ-aminobutyric acid], the “effect on stimulation of calcium influx caused by ATP” value (5637 cells; AU containing 1 uM GABA mixed with ATP in AU, FIG. 10A) was “reduce the stimulation of calcium influx”, the “effect on stimulation of calcium influx caused by E. coli supernatant” value (5637 cells; GABA mixed with E. coli supernatant, FIG. 10B) was “inhibit the stimulation of calcium influx” and the contraction of myofibroblasts ([1]; GABA alone, FIG. 12C) was “did not cause contraction”. The “effect on contraction caused by E. coli” value ([1]; GABA with E. coli, FIG. 12D) was “inhibited contraction; also recorded: could inhibit contraction”.
O=C(O)c1cn(C2CC2)c2cc(N3CCNCC3)c(F)cc2c1=O [ciprofloxacin] was tested, and the “ATP released by E. coli” value (E. coli [3]) was “up to 0.0261±0.003 uM”.
